Species: Rattus norvegicus
Assay: DrugMatrix - Regimen: Daily Repeat
Format: toxicity, organism-based, Sprague-Dawley
Design: regimen Daily Repeat, gender Male, age 6-8 weeks
Conditions: in vivo, po, 20 mg/kg, route oral GAVAGE, dose level Low, vehicle 100 % WATER; for ABSOLUTE BASOPHIL / ABSOLUTE EOSINOPHIL / ABSOLUTE LYMPHOCYTE / ABSOLUTE MONOCYTE / ABSOLUTE SEGMENTED NEUTROPHIL / BASOPHIL / EOSINOPHIL / ERYTHROCYTE COUNT / HEMATOCRIT / HEMOGLOBIN / LEUKOCYTE COUNT / LYMPHOCYTE / MEAN CORPUSCULAR HEMOGLOBIN / MEAN CORPUSCULAR HEMOGLOBIN CONCENTRATION / MEAN CORPUSCULAR VOLUME / MONOCYTE / NEUTROPHIL / NUCLEATED RED BLOOD CELLS / PLATELET COUNT: tissue Blood; for ALANINE AMINOTRANSFERASE / ALBUMIN / ALKALINE PHOSPHATASE / ASPARTATE AMINOTRANSFERASE / BLOOD UREA NITROGEN / CARBON DIOXIDE / CHLORIDE / CHOLESTEROL / CREATINE PHOSPHOKINASE / CREATININE / GLUCOSE / LACTATE DEHYDROGENASE / LIPASE / PHOSPHORUS / POTASSIUM / SODIUM / TOTAL BILIRUBIN / TOTAL PROTEIN / URIC ACID: tissue Plasma

## C[C@H]1O[C@H](O[C@H]2[C@H](O)[C@@H](O)[C@@H](O[C@H]3[C@H](O)[C@@H](O)C(O)O[C@@H]3CO)O[C@@H]2CO)[C@H](O)[C@@H](O)[C@@H]1N[C@H]1C=C(CO)[C@@H](O)[C@H](O)[C@H]1O (stereo partly specified) [ACARBOSE]
72 h, time 3 day
  ABSOLUTE BASOPHIL: 0 CELLS/uL
  ABSOLUTE EOSINOPHIL: 64.67 CELLS/uL
  ABSOLUTE LYMPHOCYTE: 10120.67 CELLS/uL
  ABSOLUTE MONOCYTE: 0 CELLS/uL
  ABSOLUTE SEGMENTED NEUTROPHIL: 948 CELLS/uL
  BASOPHIL: 0%
  EOSINOPHIL: 0.67%
  ERYTHROCYTE COUNT: 5.03 x10E6/uL
  HEMATOCRIT: 31.8%
  HEMOGLOBIN: 12.87 G/DL
  LEUKOCYTE COUNT: 11.13 x10E3/uL
  LYMPHOCYTE: 91.33%
  MEAN CORPUSCULAR HEMOGLOBIN: 25.6 pg
  MEAN CORPUSCULAR HEMOGLOBIN CONCENTRATION: 40.47 G/DL
  MEAN CORPUSCULAR VOLUME: 63.17 fL
  MONOCYTE: 0%
  NEUTROPHIL: 8%
  NUCLEATED RED BLOOD CELLS: 0 /100WBC
  PLATELET COUNT: 1088.33 x10E3/uL
  ALANINE AMINOTRANSFERASE: 51.33 u/L
  ALBUMIN: 4.1 G/DL
  ALKALINE PHOSPHATASE: 389.33 u/L
  ASPARTATE AMINOTRANSFERASE: 87.67 u/L
  BLOOD UREA NITROGEN: 16.67 mg/dL
  CARBON DIOXIDE: 24.33 mmol/L
  CHLORIDE: 102.33 MEQ/L
  CHOLESTEROL: 70.33 mg/dL
  CREATINE PHOSPHOKINASE: 377 u/L
  CREATININE: 0.18 mg/dL
  GLUCOSE: 148.33 mg/dL
  LACTATE DEHYDROGENASE: 368.33 u/L
  LIPASE: 8.33 u/L
  PHOSPHORUS: 14.03 mg/dL
  POTASSIUM: 6.96 MEQ/L
  SODIUM: 145.97 MEQ/L
  TOTAL BILIRUBIN: 0.23 mg/dL
  TOTAL PROTEIN: 5.73 G/DL
  URIC ACID: 1.43 mg/dL
120 h, time 5 day
  ABSOLUTE BASOPHIL: 0 CELLS/uL
  ABSOLUTE EOSINOPHIL: 33.67 CELLS/uL
  ABSOLUTE LYMPHOCYTE: 11112 CELLS/uL
  ABSOLUTE MONOCYTE: 101.33 CELLS/uL
  ABSOLUTE SEGMENTED NEUTROPHIL: 919.67 CELLS/uL
  BASOPHIL: 0%
  EOSINOPHIL: 0.33%
  ERYTHROCYTE COUNT: 5.14 x10E6/uL
  HEMATOCRIT: 33.7%
  HEMOGLOBIN: 13.33 G/DL
  LEUKOCYTE COUNT: 12.17 x10E3/uL
  LYMPHOCYTE: 91%
  MEAN CORPUSCULAR HEMOGLOBIN: 26 pg
  MEAN CORPUSCULAR HEMOGLOBIN CONCENTRATION: 39.57 G/DL
  MEAN CORPUSCULAR VOLUME: 65.63 fL
  MONOCYTE: 1%
  NEUTROPHIL: 7.67%
  NUCLEATED RED BLOOD CELLS: 1 /100WBC
  PLATELET COUNT: 1353.33 x10E3/uL
  ALANINE AMINOTRANSFERASE: 52.33 u/L
  ALBUMIN: 4.4 G/DL
  ALKALINE PHOSPHATASE: 361.67 u/L
  ASPARTATE AMINOTRANSFERASE: 74.67 u/L
  BLOOD UREA NITROGEN: 17.33 mg/dL
  CARBON DIOXIDE: 27.33 mmol/L
  CHLORIDE: 101.33 MEQ/L
  CHOLESTEROL: 74 mg/dL
  CREATINE PHOSPHOKINASE: 186 u/L
  CREATININE: 0.17 mg/dL
  GLUCOSE: 180.33 mg/dL
  LACTATE DEHYDROGENASE: 91.33 u/L
  LIPASE: 8.67 u/L
  PHOSPHORUS: 13.03 mg/dL
  POTASSIUM: 6.7 MEQ/L
  SODIUM: 145.5 MEQ/L
  TOTAL BILIRUBIN: 0.2 mg/dL
  TOTAL PROTEIN: 6.1 G/DL
  URIC ACID: 1.6 mg/dL
